Patent publication US20120115877A1, “Facially Amphiphilic Compounds, Compositions, And Uses Thereof In Treating Cancer” (POLYMEDIX, INC., priority 2010, published 2012)

Legend:
Type in all cases: cell-based, human
HCT-116 = assay: NCI-60 screen, Colon Cancer; conditions: 10 μM
Protocol: (§1) Several compounds were tested at single concentrations (10 μM) against 59 different human tumor cell lines, representing leukemia, melanoma and cancers of the lung, colon, brain, ovary, breast, prostate, and kidney (see, Table 3). The human tumor cell lines of the cancer screening panel were grown in RPMI 1640 medium containing 5% fetal bovine serum and 2 mM L-glutamine. For a typical screening experiment, cells were inoculated into 96 well microtiter plates in 100 μL at plating densities ranging from 5,000 to 40,000 cells/well depending on the doubling time of individual cell lines. After cell inoculation, the microtiter plates were incubated at 37° C., 5% CO2, 95% air and 100% relative humidity for 24 hours prior to addition of the compounds.
(§2) After 24 hours, two plates of each cell line were fixed in situ with TCA, to represent a measurement of the cell population for each cell line at the time of drug addition (Tz). Compounds were solubilized in dimethyl sulfoxide at 400-fold the desired final maximum test concentration and stored frozen prior to use. At the time of drug addition, an aliquot of frozen concentrate was thawed and diluted to twice the desired final maximum test concentration with complete medium containing 50 μg/ml gentamicin. Additional four, 10-fold or ½ log serial dilutions were made to provide a total of five compound concentrations plus control. Aliquots of 100 μl of these different drug dilutions were added to the appropriate microtiter wells already containing 100 μl of medium, resulting in the required final compound concentrations.
(§3) Following drug addition, the plates were incubated for an additional 48 hours at 37° C., 5% CO2, 95% air, and 100% relative humidity. For adherent cells, the assay was terminated by the addition of cold TCA. Cells were fixed in situ by the gentle addition of 50 μl of cold 50% (w/v) TCA (final concentration, 10% TCA) and incubated for 60 minutes at 4° C. The supernatant was discarded, and the plates were washed five times with tap water and air dried. Sulforhodamine B (SRB) solution (100 μl) at 0.4% (w/v) in 1% acetic acid was added to each well, and plates were incubated for 10 minutes at room temperature. After staining, unbound dye was removed by washing five times with 1% acetic acid and the plates were air dried. Bound stain was subsequently solubilized with 10 mM trizma base, and the absorbance was read on an automated plate reader at a wavelength of 515 nm. For suspension cells, the methodology was the same except that the assay was terminated by fixing settled cells at the bottom of the wells by gently adding 50 μl of 80% TCA (final concentration, 16% TCA). Using the seven absorbance measurements (time zero, (Tz), control growth, (C), and test growth in the presence of drug at the five concentration levels (Ti)), the percentage growth was calculated at each of the compound concentrations levels. Percentage growth inhibition was calculated as:
(§4) [(Ti−Tz)/(C−Tz)]×100 for concentrations for which Ti>/=Tz
(§5) [(Ti−Tz)/Tz]×100 for concentrations for which Ti<Tz.
(§6) Three dose response parameters were calculated for each compound. Growth inhibition of 50% (GI50) was calculated from [(Ti−Tz)/(C−Tz)]×100=50, which is the compound concentration resulting in a 50% reduction in the net protein increase (as measured by SRB staining) in control cells during the compound incubation. The compound concentration resulting in total growth inhibition (TGI) was calculated from Ti=Tz. The LC50 (concentration of compound resulting in a 50% reduction in the measured protein at the end of the compound treatment as compared to that at the beginning) indicating a net loss of cells following treatment was calculated from [(Ti−Tz)/Tz]×100=−50. Values were calculated for each of these three parameters if the level of activity was reached; however, if the effect was not reached or was exceeded, the value for that parameter was expressed as greater or less than the maximum or minimum concentration tested.

COLO 205 = assay: NCI-60 screen, Colon Cancer; conditions: 10 μM
Protocol: as §1, §2, §3, §4, §5, §6

SW-620 = assay: NCI-60 screen, Colon Cancer; conditions: 10 μM
Protocol: as §1, §2, §3, §4, §5, §6

KM12 = assay: NCI-60 screen, Colon Cancer; conditions: 10 μM
Protocol: as §1, §2, §3, §4, §5, §6

HT29 = assay: NCI-60 screen, Colon Cancer; conditions: 10 μM
Protocol: as §1, §2, §3, §4, §5, §6

HCC-2998 = assay: NCI-60 screen, Colon Cancer; conditions: 10 μM
Protocol: as §1, §2, §3, §4, §5, §6

HCT-15 = assay: NCI-60 screen, Colon Cancer; conditions: 10 μM
Protocol: as §1, §2, §3, §4, §5, §6

UACC-257 = assay: NCI-60 screen, Melanoma; conditions: 10 μM
Method in brief: (§7)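 Compounds were tested at a single 10 μM concentration on cells grown in RPMI 1640 with 5% FBS and 2 mM L-glutamine, plated 24 h before dosing. After 48 h at 37 °C, cells were TCA-fixed and SRB-stained, and absorbance was read at 515 nm. Percent growth is relative to time-zero and untreated control plates.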

MDA-MB-435 = assay: NCI-60 screen, Melanoma; conditions: 10 μM
Method in brief: as §7

LOX IMVI = assay: NCI-60 screen, Melanoma; conditions: 10 μM
Method in brief: as §7

SK-MEL-2 = assay: NCI-60 screen, Melanoma; conditions: 10 μM
Method in brief: as §7

RXF 393 = assay: NCI-60 screen, Renal Cancer; conditions: 10 μM
Protocol: as §1, §2, §3, §4, §5, §6

TK-10 = assay: NCI-60 screen, Renal Cancer; conditions: 10 μM
Protocol: as §1, §2, §3, §4, §5, §6

CAKI-1 = assay: NCI-60 screen, Renal Cancer; conditions: 10 μM
Protocol: as §1, §2, §3, §4, §5, §6

SN12C = assay: NCI-60 screen, Renal Cancer; conditions: 10 μM
Protocol: as §1, §2, §3, §4, §5, §6

A498 = assay: NCI-60 screen, Renal Cancer; conditions: 10 μM
Protocol: as §1, §2, §3, §4, §5, §6

ACHN = assay: NCI-60 screen, Renal Cancer; conditions: 10 μM
Protocol: as §1, §2, §3, §4, §5, §6

UO-31 = assay: NCI-60 screen, Renal Cancer; conditions: 10 μM
Protocol: as §1, §2, §3, §4, §5, §6

MDA-MB-31/ATCC = assay: NCI-60 screen, Breast Cancer; conditions: 10 μM, MDA-MB-231/ATCC
Protocol: as §1, §2, §3, §4, §5, §6

MCF7 = assay: NCI-60 screen, Breast Cancer; conditions: 10 μM
Protocol: as §1, §2, §3, §4, §5, §6

T-47D = assay: NCI-60 screen, Breast Cancer; conditions: 10 μM
Protocol: as §1, §2, §3, §4, §5, §6

SR = assay: NCI-60 screen, Leukemia; conditions: 10 μM
Protocol: as §1, §2, §3, §4, §5, §6

MOLT-4 = assay: NCI-60 screen, Leukemia; conditions: 10 μM
Protocol: as §1, §2, §3, §4, §5, §6

HL-60(TB) = assay: NCI-60 screen, Leukemia; conditions: 10 μM
Protocol: as §1, §2, §3, §4, §5, §6

CCRF-CEM = assay: NCI-60 screen, Leukemia; conditions: 10 μM
Protocol: as §1, §2, §3, §4, §5, §6

K-562 = assay: NCI-60 screen, Leukemia; conditions: 10 μM
Protocol: as §1, §2, §3, §4, §5, §6

SMILES | Percent Growth (HCT-116) | Percent Growth (COLO 205) | Percent Growth (SW-620) | Percent Growth (KM12) | Percent Growth (HT29) | Percent Growth (HCC-2998) | Percent Growth (HCT-15) | Percent Growth (UACC-257) | Percent Growth (MDA-MB-435) | Percent Growth (LOX IMVI) | Percent Growth (SK-MEL-2) | Percent Growth (RXF 393) | Percent Growth (TK-10) | Percent Growth (CAKI-1) | Percent Growth (SN12C) | Percent Growth (A498) | Percent Growth (ACHN) | Percent Growth (UO-31) | Percent Growth (MDA-MB-31/ATCC) | Percent Growth (MCF7) | also measured
NCCCc1cccc(-c2ccc3oc4ccc(-c5cccc(CCCN)c5)cc4c3c2)c1 [Compound G] | −37.99% | 26.37% | −7.997% | 14.01% | −51.14% | 81.22% | 49.71% | 44.84% | 62.07% | −75.08% | 72.07% | 65.05% | 57.59% | 56.68% | 82.22% | 92.26% | 36.71% | 84.95% | 37.19% | −44.29% | Percent Growth (T-47D): 80.44%; Percent Growth (SR): −19.6%; Percent Growth (MOLT-4): −6.401%; Percent Growth (HL-60(TB)): 46.37%; Percent Growth (CCRF-CEM): 9.165%; Percent Growth (K-562): 2.899%
NCCCc1cccc(-c2ccc3sc4ccc(-c5cccc(CCCN)c5)cc4c3c2)c1 [Compound D] | 0.5127% | 31.52% | 15.48% | 42.09% | 21.31% | 93.27% | 88.15% | 100% | 81.14% | 26.77% | 81% | 81.71% | 86.48% | 82.82% | 84.45% | 81.64% | 68.97% | 85.61% | 60.18% | −59.63% | Percent Growth (T-47D): 90.75%; Percent Growth (SR): 0%; Percent Growth (MOLT-4): 2.072%; Percent Growth (HL-60(TB)): 68.33%; Percent Growth (CCRF-CEM): 5.12%; Percent Growth (K-562): 12.99%
